Laboratory results reported in US5977326A, “Process for making morphine-6-glucuronide or substituted morphine-6-glucuronide” (priority 1991, dated 1999).

Assays:
[1] = In vivo antinociceptive activity (A.U.C.), animal pain model; conditions: area under the time effect curve
Text: *A.U.C. = area under the time effect curve.

[2] = versus morphine; R. Osborne et al., The Lancet, 1988, 828; cited from earlier work
[3] = molecular target: μ1 Receptor (opioid analgesia receptor) (Homo sapiens, UniProt P35372); format: binding
μ1 Receptor (opioid analgesia receptor), sequence (P35372 whole entry): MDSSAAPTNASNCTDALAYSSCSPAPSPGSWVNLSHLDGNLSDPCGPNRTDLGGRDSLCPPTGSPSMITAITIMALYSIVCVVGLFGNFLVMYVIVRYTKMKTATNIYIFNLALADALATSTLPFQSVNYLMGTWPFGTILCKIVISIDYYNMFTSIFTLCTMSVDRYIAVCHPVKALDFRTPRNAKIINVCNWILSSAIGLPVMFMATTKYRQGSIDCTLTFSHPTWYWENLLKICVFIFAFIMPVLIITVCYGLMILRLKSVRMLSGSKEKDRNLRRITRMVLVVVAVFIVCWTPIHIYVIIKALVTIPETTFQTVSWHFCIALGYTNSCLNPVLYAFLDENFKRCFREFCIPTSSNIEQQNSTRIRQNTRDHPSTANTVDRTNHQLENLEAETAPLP
Text: compound which displaces 50% of a labelled competitive ligand from […]

Row | Structure (SMILES) | In vivo antinociceptive (A.U.C.) ([1]; 1 mg) | In vivo antinociceptive (A.U.C.) ([1]; 2 mg) | In vivo antinociceptive (A.U.C.) ([1]; 4 mg) | analgesic power compared with morphine [2] | In vivo antinociceptive (A.U.C.) ([1]; 8 mg) | binding affinity to the receptor (μ1), in words [3]
1 | CN1CC[C@]23c4c5ccc(O)c4O[C@H]2[C@@H](O)C=C[C@H]3[C@H]1C5 [Compound 1, morphine] | 197.3 | 241.4 | 738.3 | – | – | –
2 | CN1CC[C@]23c4c5ccc(O)c4O[C@H]2[C@@H](O[C@@H]2O[C@H](C(=O)O)[C@@H](O)[C@H](O)[C@H]2O)C=C[C@H]3[C@H]1C5 [Compound 2, morphine-6-glucuronide] | – | 209.6 | 618.1 | more powerful analgesic than morphine itself | – | –
3 | CN1CC[C@]23c4c5ccc(O)c4O[C@H]2[C@@H](O[C@@H]2OC(C(=O)O)=C[C@H](O)[C@H]2O)C=C[C@H]3[C@H]1C5 [Compound 3] | – | 205.0 | 168.5 | – | 175.5 | –
4 | CN1CC[C@]23c4c5ccc(O)c4O[C@H]2[C@@H](O[C@@H]2O[C@H](C(=O)O)[C@@H](O)[C@H]2O)C=C[C@H]3[C@H]1C5 [Compound 4] | – | – | 238.1 | – | 68.3 | –
5 | O=C(O)[C@H]1O[C@@H](O[C@H]2C=C[C@H]3[C@H]4Cc5ccc(O)c6c5[C@@]3(CCN4)[C@H]2O6)[C@H](O)[C@@H](O)[C@@H]1O [Compound 5] | – | 65.6 | 564.8 | – | 837.9 | –
6 | CN1CC[C@]23c4c5ccc(O)c4O[C@H]2[C@@H](O[C@@H]2O[C@H](C(=O)O)[C@@H](O)[C@H](O)[C@H]2O)CC[C@H]3[C@H]1C5 [Compound 6, 1-(7,8-dihydromorphin-6-yl)-β-D-glucopyranosiduronic acid] | 277.4 | 720.4 | 753.3 | – | – | greatest binding affinity to the relevant receptor (μ1)
